From article PMC6259569, “Pancreatic Lipase Inhibition by C-Glycosidic Flavones Isolated from Eremochloa ophiuroides” (Molecules, 2010)

Biological target: T1, porcine pancreatic lipase (Sus scrofa, UniProt P00591)
T1 construct: purchased Sigma, St. Louis, MO
T1 sequence (P00591 1-450): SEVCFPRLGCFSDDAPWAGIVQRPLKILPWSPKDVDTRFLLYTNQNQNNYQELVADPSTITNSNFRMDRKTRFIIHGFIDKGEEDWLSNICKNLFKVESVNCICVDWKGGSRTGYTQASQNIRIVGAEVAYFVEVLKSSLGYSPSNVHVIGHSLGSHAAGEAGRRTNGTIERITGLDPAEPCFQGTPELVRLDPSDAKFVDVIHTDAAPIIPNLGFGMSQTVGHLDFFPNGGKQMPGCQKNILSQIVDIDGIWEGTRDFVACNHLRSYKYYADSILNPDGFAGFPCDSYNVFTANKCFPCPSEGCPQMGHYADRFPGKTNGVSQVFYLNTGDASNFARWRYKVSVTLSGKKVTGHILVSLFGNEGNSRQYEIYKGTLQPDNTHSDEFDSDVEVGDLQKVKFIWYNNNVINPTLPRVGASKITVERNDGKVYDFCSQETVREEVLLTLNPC
Assay: Pancreatic lipase inhibition assay (p-NPB hydrolysis, OD 405 nm)
Assay type: biochemical
Details: substrate p-NPB, 37 °C, mean ± S.D. of quadruplicate experiments, read-out: IC50, pancreatic lipase inhibitory activity (concentration that caused a 50% reduction in enzyme activity)
Description: The ability of the compounds to inhibit porcine pancreatic lipase was evaluated using previously reported methods with a minor modification. Briefly, an enzyme buffer was prepared by the addition of 30 μL (10 units) of a solution of porcine pancreatic lipase (Sigma, St. Louis, MO) in10 mM MOPS (morpholinepropanesulphonic acid), and 1 mM EDTA, pH 6.8 to 850 μL of Tris buffer (100 mM Tris-HC1 and 5 mM CaCl2, pH 7.0). […] Pancreatic lipase activity was determined by measuring the hydrolysis of p-NPB to p-nitrophenol at 405 nm using an ELISA reader (Tecan, Infinite F200, Austria). Inhibition of lipase activity was expressed as the percentage decrease in the OD when porcine pancreatic lipase was incubated with the test compounds.

Compared with CC1OC(OC2C(c3c(O)cc4oc(-c5ccc(O)c(O)c5)cc(=O)c4c3O)OC(CO)C(O)C2O)C(O)C(O)C1O [Compound 5, isoorientin 2-O-α-L-rhamnoside], O=c1cc(-c2ccc(O)c(O)c2)oc2cc(O)c([C@@H]3O[C@H](CO)[C@@H](O)[C@H](O)[C@H]3O)c(O)c12 [Compound 3, isoorientin] is 2.4-fold higher in IC50: 18.5 ± 2.6 µM for the first, 44.6 ± 1.3 µM for the second.

First: O=c1cc(-c2ccc(O)c(O)c2)oc2c([C@@H]3O[C@H](CO)[C@@H](O)[C@H](O)[C@H]3O)c(O)cc(O)c12 [Compound 2, orientin]
Second: C[C@H]1O[C@@H](c2c(O)cc3oc(-c4ccc(O)c(O)c4)cc(=O)c3c2O)C[C@H](O)[C@H]1O [Compound 1, luteolin 6-C-β-D-boivinopyranoside]
The IC50 of the first is 1.6-fold lower: 31.6 ± 2.7 µM for the first, 50.5 ± 3.9 µM for the second.

O=C(O)/C=C/c1ccc(O)c(O)c1 [Compound 9, caffeic acid] and O=C(/C=C/c1ccc(O)c(O)c1)O[C@@H]1C[C@](O)(C(=O)O)C[C@@H](O)[C@H]1O [Compound 7, chlorogenic acid] cannot be ordered by IC50: over 200 µM for the first, over 200 µM for the second.

First: O=c1cc(-c2ccc(O)c(O)c2)oc2cc(O)cc(O)c12 [Compound 6, luteolin]
Second: COC(=O)[C@]1(O)C[C@@H](O)[C@@H](O)[C@H](OC(=O)/C=C/c2ccc(O)c(O)c2)C1 [Compound 8, methyl chlorogenate]
The IC50 of the first is higher: over 200 µM for the first, 33.6 ± 2 µM for the second.
